Peptide text beside a SMILES is read from it.
Tests used:
Format in all cases: cell-based
TAS2R44 [1] = molecular target: T1, TAS2R44 (Homo sapiens, UniProt P59538, L162M); test: Fluo-4 calcium assay, antagonists of the response of TAS2R44 to steviol glycosides; settings: without bitter blocker
T1 construct: The full length gene of human TAS2R44 was amplified by polymerase chain reaction (PCR) using gene-specific primers that span the entire coding region; RSS tag (first 45 amino acids of rat somatostatin receptor subtype 3, plus EcoRI site) (N); expressed in transfected cells; host or cells: HEK293T/Galpha16-gustducin 44 cells, stably transfected with pcDNA3.1Zeo-TAS2R44
T1 sequence (P59538 with tags, fused parts or gaps L162M): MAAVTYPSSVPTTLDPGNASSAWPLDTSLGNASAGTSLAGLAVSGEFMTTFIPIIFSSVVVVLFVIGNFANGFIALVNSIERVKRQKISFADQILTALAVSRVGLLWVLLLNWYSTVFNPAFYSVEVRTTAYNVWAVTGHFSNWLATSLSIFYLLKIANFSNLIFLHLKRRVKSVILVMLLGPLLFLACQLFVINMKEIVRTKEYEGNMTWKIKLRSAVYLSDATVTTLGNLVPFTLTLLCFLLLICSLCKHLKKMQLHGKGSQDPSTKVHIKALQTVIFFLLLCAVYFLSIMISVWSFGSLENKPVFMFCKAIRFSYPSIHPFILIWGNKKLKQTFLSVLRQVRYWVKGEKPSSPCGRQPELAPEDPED
Experimental: All cells were HEK293T cells stably expressing Gα16-gustducin44, or expressing Gα16-gustducin44 and TAS2R44.
The method was carried out as described in example 3 subject to the following modifications:
The samples were tested with and without candidate bitter blocker and the signals were compared. The candidate bitter blocker was dissolved in dimethylsulfoxide (DMSO), and a negative control with equivalent DMSO concentration (0.02%) was performed accordingly to exclude a potential inhibitory effect of the solvent. Furthermore, a control with the relevant steviol glycoside and DMSO (0.02%) was performed accordingly (see table in example 5).
All data was calculated as ΔF/F0 and the standard deviation (STD) is indicated in each table, see results for the identified bitter blocker 4-(2,2,3-trimethyl-cyclopentyl)-butanoic acid below.

[2] = system: HEK293T Gα16gustducin44 cells (that do not express TAS2R44); test: Fluo-4 calcium assay, negative control cells without TAS2R44; settings: for change in signal in the negative control: cells expressing only Gα16-gustducin44
Excerpt: (§1) The obtained calcium signals were corrected for the response of cells expressing only the G Proteinα subunit (Gα16-gustducin44) and normalized to the fluorescence of cells prior to the stimulus using ΔF/F0 (Fmax−Fmin/F0).
As a negative control to determine unspecific signals, each of the applied concentrations of each F(I) steviol glycoside was applied to cells expressing only Gα16gustducin44.

TAS2R44 [3] = molecular target: T1, TAS2R44; test: Fluo-4 calcium assay, activation of TAS2R44 by agonists; settings: for EC50: HEK293T cells stably expressing Gα16-gustducin44 and TAS2R44, nonlinear regression, read-out: calculated EC50 value for TAS2R44; for calcium signaling upon addition: cells stably expressing human TAS2R44
Experimental: Fluo-4AM (Invitrogen, Carlsbad, Calif., US) is a fluorescent indicator of intracellular calcium dynamics (change in concentration) and allows monitoring changes in the calcium concentration, particularly an increase in response to receptor activation occurring after agonist exposure.
At day 0, the HEK293T cell line expressing Gα16-gustducin44 and a TAS2R bitter taste receptor formed as described in examples 2b or 2c was seeded in antibiotic-free growth medium (standard DMEM with 10% (v/v) heat-inactivated fetal bovine serum, 2 mM L-glutamine[…]) into black wall/clear bottom 96-well plates, coated with poly(ethylenimine) (0.005% v/v) at a concentration of 15,000 cells per well and incubated for 48 hours in humidified atmosphere (37° C., 5% CO2).
At the time of the assay, the growth medium was discarded and the cells were in humidified atmosphere (37° C., 5% CO2) for 1 hour with 50 μl of loading buffer consisting of 1.5 μM Fluo-4 AM and […] probenicid (Sigma-Aldrich, St. Louis, Mo., US) in DMEM.
Afterwards, the 96-well plate was washed 5 times with 100 μl of assay buffer (130 mM NaCl, 5 mM KCl, 10 mM HEPES, 2 mM CaCl2, and 5 mM dextrose, pH 7.4) per well, using an automated plate washer (BioTek). The plate was further incubated for 30 minutes at room temperature in the dark to allow for complete de-esterification of the Fluo-4. Afterwards the plate was washed 5 times with 100 μl of assay buffer per well, and reconstituted with 100 μl of assay buffer per well.
For assay reading, the plate was placed in a Fluorometric Imaging Plate Reader (FLIPR) (FLIPR-TETRA™, Molecular Devices, Sunnyvale, Calif., US), and receptor activation was initiated by addition of 100 μl of a twofold concentrated agonist stock solution (to give the desired agonist end concentration when added to the 100 microliter assay buffer volume), which was prepared in assay buffer.
Fluorescence was continuously monitored for 20 seconds to give a signal baseline (averaged to give F0) prior to agonist addition and for 120 seconds after agonist addition. The change in signal divided by F0 gives ΔF/F0 indicated in the table, with ΔF being the maximum signal occurring within the 120 seconds minus the minimum signal (occurring within the 120 seconds after agonist addition.
All data was collected from at least two independent experiments each carried out in triplicate.
A concentration-response analysis was performed and EC50 values were calculated by nonlinear regression using the function f(x)=(a−d)/(1+(x/C)^nh)+d; with a=minimum signal, d=maximum signal, nh=hill coefficient, C=EC50. , and x=agonist concentration. EC50 is the molar concentration of an agonist which produces 50% of the maximum possible effective response for that agonist.
as §1
To confirm that the cell line formed in example 2c stably expresses the bitter taste receptor TAS2R44, a concentration-response curve for saccharin, a known agonist of TAS2R44, was generated. […] The standard deviation (+/−STD) is also indicated.
The intracellular calcium response following addition of steviol glycosides (stevioside, rebaudioside A) was determined in HEK293T cell line stably expressing Gα16-gustducin44 and TAS2R44 formed as described in example 2a.

In the case of `C=C1C[C@@]23CC[C@H]4[C@@](C)(CCC[C@@]4(C)C(=O)O[C@@H]4O[C@H](CO)[C@@H](O)[C@H](O)[C@H]4O)[C@@H]2CC[C@]1(O[C@@H]1O[C@H](CO)[C@@H](O)[C@H](O[C@@H]2O[C@H](CO)[C@@H](O)[C@H](O)[C@H]2O)[C@H]1O[C@@H]1O[C@H](CO)[C@@H](O)[C@H](O)[C@H]1O)C3` [rebaudioside A], the “rebaudioside positive control average ΔF/F0” value (TAS2R44 [1]; 0.7 mM rebaudioside A (EC50) alone) is reported as 0.4625, the “change in signal in the negative control” value [2] is reported as “No significant change” and the “Neg. Control ΔF/F0” value ([2]; rebaudioside A 0.004 mM) is reported as 0.061. The “Neg. Control ΔF/F0” value ([2]; rebaudioside A 0.008 mM) was 0.0635, the “Neg. Control ΔF/F0” value ([2]; rebaudioside A 0.016 mM) was 0.054 and the “Neg. Control ΔF/F0” value ([2]; rebaudioside A 0.031 mM) was 0.063. For the same compound, the “Neg. Control ΔF/F0” value ([2]; rebaudioside A 0.063 mM) was 0.0685, the “Neg. Control ΔF/F0” value ([2]; rebaudioside A 0.125 mM) was 0.087 and the “Neg. Control ΔF/F0” value ([2]; rebaudioside A 0.625 mM) was 0.1115. The “Neg. Control ΔF/F0” value ([2]; rebaudioside A 2.500 mM) was 0.153, the “Neg. Control ΔF/F0” value ([2]; rebaudioside A 5.000 mM) was 0.208 and the EC50 (TAS2R44 [3]) was 0.7 mM. For the same compound, the “calcium signaling upon addition” value (TAS2R44 [3]) was “significant increase”, the “TAS2R44 ΔF/F0” value (TAS2R44 [3]; rebaudioside A 0.004 mM) was 0.07687 and the “TAS2R44 ΔF/F0” value (TAS2R44 [3]; rebaudioside A 0.008 mM) was 0.07938. The “TAS2R44 ΔF/F0” value (TAS2R44 [3]; rebaudioside A 0.016 mM) was 0.0975, the “TAS2R44 ΔF/F0” value (TAS2R44 [3]; rebaudioside A 0.031 mM) was 0.1681 and the “TAS2R44 ΔF/F0” value (TAS2R44 [3]; rebaudioside A 0.063 mM) was 0.1619. The “TAS2R44 ΔF/F0” value (TAS2R44 [3]; rebaudioside A 0.125 mM) was 0.32, the “TAS2R44 ΔF/F0” value (TAS2R44 [3]; rebaudioside A 0.625 mM) was 0.7025 and the “TAS2R44 ΔF/F0” value (TAS2R44 [3]; rebaudioside A 2.500 mM) was 0.7819. The “TAS2R44 ΔF/F0” value (TAS2R44 [3]; rebaudioside A 5.000 mM) was 0.6262.

`COC(=O)[C@H](Cc1ccccc1)NC(=O)[C@@H](N)CC(=O)O` [aspartame] (H-Asp-Phe-OMe) was tested, and the “agonist for TAS2R44” value (TAS2R44 [3]; sweeteners with a known bitter off-note) was “not to be agonists”.

With `O=C1NS(=O)(=O)c2ccccc21` [saccharin] the “change in signal in the negative control” value [2] was “did not show any significant change in signal”, the “Neg. Control ΔF/F0” value ([2]; saccharin 10.0000 mM) was 0.020 and the “TAS2R44 ΔF/F0” value (TAS2R44 [3]; saccharin 0.0391 mM) was 0.024. The “TAS2R44 ΔF/F0” value (TAS2R44 [3]; saccharin 0.0781 mM) was 0.075, the “TAS2R44 ΔF/F0” value (TAS2R44 [3]; saccharin 0.1563 mM) was 0.181 and the “TAS2R44 ΔF/F0” value (TAS2R44 [3]; saccharin 0.3125 mM) was 0.388. The “TAS2R44 ΔF/F0” value (TAS2R44 [3]; saccharin 0.6250 mM) was 0.668, the “TAS2R44 ΔF/F0” value (TAS2R44 [3]; saccharin 1.2500 mM) was 0.947 and the “TAS2R44 ΔF/F0” value (TAS2R44 [3]; saccharin 2.5000 mM) was 1.150. For the same compound, the “TAS2R44 ΔF/F0” value (TAS2R44 [3]; saccharin 5.0000 mM) was 1.258 and the “TAS2R44 ΔF/F0” value (TAS2R44 [3]; saccharin 10.0000 mM) was 1.354.

In the case of `C=C1C[C@@]23CC[C@H]4[C@@](C)(CCC[C@@]4(C)C(=O)O[C@@H]4O[C@H](CO)[C@@H](O)[C@H](O)[C@H]4O)[C@@H]2CC[C@]1(O[C@@H]1O[C@H](CO)[C@@H](O)[C@H](O)[C@H]1O[C@@H]1O[C@H](CO)[C@@H](O)[C@H](O)[C@H]1O)C3` [stevioside], the “stevioside positive control average ΔF/F0” value (TAS2R44 [1]; 2.2 mM stevioside (EC50) alone) is reported as 0.733, the “change in signal in the negative control” value [2] is reported as “No significant change” and the “Neg. Control ΔF/F0” value ([2]; stevioside 0.004 mM) is reported as 0.061. For the same compound, the “Neg. Control ΔF/F0” value ([2]; stevioside 0.008 mM) was 0.059, the “Neg. Control ΔF/F0” value ([2]; stevioside 0.016 mM) was 0.059 and the “Neg. Control ΔF/F0” value ([2]; stevioside 0.031 mM) was 0.074. The “Neg. Control ΔF/F0” value ([2]; stevioside 0.063 mM) was 0.065, the “Neg. Control ΔF/F0” value ([2]; stevioside 0.125 mM) was 0.063 and the “Neg. Control ΔF/F0” value ([2]; stevioside 0.625 mM) was 0.062. The “Neg. Control ΔF/F0” value ([2]; stevioside 2.500 mM) was 0.010, the “Neg. Control ΔF/F0” value ([2]; stevioside 5.000 mM) was 0.435 and the EC50 (TAS2R44 [3]) was 2.2 mM. For the same compound, the “calcium signaling upon addition” value (TAS2R44 [3]) was “significant increase”, the “TAS2R44 ΔF/F0” value (TAS2R44 [3]; stevioside 0.004 mM) was 0.082 and the “TAS2R44 ΔF/F0” value (TAS2R44 [3]; stevioside 0.008 mM) was 0.079. The “TAS2R44 ΔF/F0” value (TAS2R44 [3]; stevioside 0.016 mM) was 0.096, the “TAS2R44 ΔF/F0” value (TAS2R44 [3]; stevioside 0.031 mM) was 0.112 and the “TAS2R44 ΔF/F0” value (TAS2R44 [3]; stevioside 0.063 mM) was 0.136. The “TAS2R44 ΔF/F0” value (TAS2R44 [3]; stevioside 0.125 mM) was 0.230, the “TAS2R44 ΔF/F0” value (TAS2R44 [3]; stevioside 0.625 mM) was 0.451 and the “TAS2R44 ΔF/F0” value (TAS2R44 [3]; stevioside 2.500 mM) was 0.677. The “TAS2R44 ΔF/F0” value (TAS2R44 [3]; stevioside 5.000 mM) was 1.155.

— patent publication US8546085B2, “Methods of identifying modulators of the bitter taste receptor TAS2R44” (Givaudan SA, priority 2008, dated 2013)
